Experimental data: patent US20230270804A1, “ANTI-HYPERCHOLESTEROLEMIA COMPOSITION AND A METHOD OF MANUFACTURING THE SAME” (NBI BIOSCIENCES PRIVATE LIMITED, priority 2020, published 2023)

Assays:
[1] = rat, in vivo
Protocol: The prophylactic study which lasted 90 days used 6 rats per group. […] The 6 groups were as follows: • 1. Normal Control • 2. High Fat Diet (HFD) 1 ml 1/d+Normal Diet • 3. High Fat Diet (HFD)+Normal Diet+the composition of the present invention (OD) • 4, High Fat Diet (HFD)+Normal Diet+the composition of the present invention (BD) • 5. […] The body weights were recorded to the nearest gram (g) with proper tare to 0.0000 with the subject at steady state on the weighing machine. The same weighing machine was used for all the subjects. The machine was tested with a known set of weights for any error.
The long-term rise in the electrolyte such as Na and are associated with blood pressure disorders impacting the heart.

[2] = Therapeutic study: hematological parameters; type: in vivo, Wistar strain albino rats; settings: for Lymphocyte / Neutrophils: in % (unit assumed); for Eosinophil: unit assumed
Protocol: (§1) Wistar strain albino rats of body weight ranging from 190-225 g were selected for the present study. The temperature and humidity were kept at optimum (22+2° C.; 40-70% and animals were exposed to natural chronological day night cycles. The experiments were carried out in conformity with the Institutional Animal Ethics Committee.
(§2) The 6 groups were as follows: • 1. Normal Control • 2.
(§3) 1.5-2 ml blood sample was taken from retino-orbital chamber in vials for biochemical estimations at every 15 days. Investigations performed included detailed Total Cholesterol—TC (mg/dl), Triglyceride—TG (mg/dl), High Density Lipoprotein—HDL-C (mg/dl), Low Density Lipoprotein—LDL-C (mg/dl), Very Low-Density Lipoprotein—VLDL (mg/dl), WBC (10^3/u1), RBC (10^6/u1), Hb (g/dl), PCV (%), Reticulocyte (%), Platelet count 10^5/mm^3, Clotting time (Sec), Neutrophils, Lymphocyte, Monocyte and Eosinophil. The estimations were done with Ecoline kits from Erba Mannheim, ERBA diagnostics Mannheml, Germany using Semi Autoanalyzer RX50 of MicroLabs Instruments and COUNCELL21 of Tulip Diagnostics Pvt. Ltd. Lipid peroxidation (Plasma & Liver), HMG Co-Reductase, Creatine phosphokinase (CPK), Lactate dehydrogenase (LDH), SGOT and SGPT were estimated at the end of both the studies using the kits.

[3] = Prophylactic study (90 days): body weight; type: in vivo, Wistar strain albino rats; settings: for Average Body Weight: HFD+normal diet
Protocol: as §1, §2

[4] = Prophylactic study: hematological parameters; type: in vivo, Wistar strain albino rats; settings: HFD+normal diet, day 0
[5] = system: Creatine phosphokinase (CPK), Lactate dehydrogenase (LDH), SGOT and SGPT; experiment: Prophylactic study: CPK, LDH, SGOT, SGPT; type: in vivo, Wistar strain albino rats
Protocol: as §3

[6] = HFD+normal diet, after sacrifice

## CC(C)c1c(C(=O)Nc2ccccc2)c(-c2ccccc2)c(-c2ccc(F)cc2)n1CC[C@@H](O)C[C@@H](O)CC(=O)O [Statin, Atorvastatin]
[1]
  Sodium and potassium level: enhanced
[2]; HFD continued, day 0
  Clotting time: 113.33 ± 1.15 s
  Hb: 12.30 ± 0.20 g/dL
  Monocyte: 1.35%
  PCV: 42.57 ± 1.36%
  Platelet count: 1070 ± 13.9 10³/µL
  RBC: 7.93 ± 0.15 10^6/μl
  Reticulocyte: 1.28 ± 0.03%
  Lymphocyte: 72
  Neutrophils: 25.5
  Eosinophil: 1.25%
[2]; HFD continued, day 15
  Clotting time: 114.33 ± 1.15 s
  Hb: 12.40 ± 0.20 g/dL
  Monocyte: 1.35%
  PCV: 43.43 ± 1.53%
  Platelet count: 1070 ± 11.6 10³/µL
  RBC: 8.07 ± 0.15 10^6/μl
  WBC: 8.58 ± 0.32 103/μl
  Lymphocyte: 72
  Neutrophils: 25.5
  Eosinophil: 1.25%
[2]; HFD continued, day 30
  Clotting time: 114.37 ± 0.71 s
  Hb: 12.83 ± 0.25 g/dL
  PCV: 42.85 ± 0.25%
  Platelet count: 1087 ± 3.61 10³/µL
  RBC: 7.95 ± 0.03 10^6/μl
  Reticulocyte: 1.31 ± 0.03%
  WBC: 8.72 ± 0.07 103/μl
  Lymphocyte: 71.2
  Neutrophils: 26
  Eosinophil: 1.28%
[2]; HFD continued, day 45
  Clotting time: 114.40 ± 0.46 s
  Hb: 12.88 ± 0.28 g/dL
  Monocyte: 1.33%
  PCV: 42.93 ± 0.42%
  Platelet count: 1080 ± 14.5 10³/µL
  RBC: 7.90 ± 0.05 10^6/μl
  Reticulocyte: 1.33 ± 0.02%
  WBC: 8.65 ± 0.08 103/μl
  Lymphocyte: 71.67
  Neutrophils: 25.73
  Eosinophil: 1.27%
[2]; HFD continued, day 60
  Clotting time: 113.33 ± 1.24 s
  Hb: 12.76 ± 0.28 g/dL
  PCV: 42.53 ± 0.57%
  Platelet count: 1070 ± 17 10³/µL
  RBC: 7.83 ± 0.09 10^6/μl
  WBC: 8.57 ± 0.12 103/μl
  Lymphocyte: 71.67
  Neutrophils: 25.70
  Eosinophil: 1.28%
[2]; HFD discontinued, day 0
  Clotting time: 113.33 ± 1.53 s
  Hb: 12.53 ± 0.38 g/dL
  Monocyte: 1.35%
  PCV: 41.43 ± 1.07%
  Platelet count: 1080 ± 11 10³/µL
  RBC: 7.73 ± 0.52 10^6/μl
  Reticulocyte: 1.24 ± 0.04%
  WBC: 8.67 ± 0.59 103/μl
  Lymphocyte: 72
  Neutrophils: 25.87
  Eosinophil: 1.25%
[2]; HFD discontinued, day 15
  Clotting time: 113.50 ± 1.00 s
  Hb: 12.58 ± 0.08 g/dL
  Monocyte: 1.35%
  PCV: 41.63 ± 1.02%
  Platelet count: 1087 ± 8.02 10³/µL
  RBC: 7.97 ± 0.32 10^6/μl
  Reticulocyte: 1.26 ± 0.01%
  WBC: 8.57 ± 0.42 103/μl
  Lymphocyte: 72
  Neutrophils: 25.97
  Eosinophil: 1.25%
[2]; HFD discontinued, day 30
  Clotting time: 113.00 ± 0.70 s
  Hb: 12.62 ± 0.07 g/dL
  PCV: 41.64 ± 0.07%
  Platelet count: 1086 ± 8.19 10³/µL
  RBC: 7.73 ± 0.03 10^6/μl
  Reticulocyte: 1.27 ± 0.02%
  WBC: 8.58 ± 0.04 103/μl
  Lymphocyte: 71.3
  Neutrophils: 26.1
  Eosinophil: 1.26%
[2]; HFD discontinued, day 45
  Clotting time: 113.17 ± 0.35 s
  Hb: 12.87 ± 0.26 g/dL
  Monocyte: 1.27%
  PCV: 41.42 ± 0.50%
  Platelet count: 1070 ± 18.7 10³/µL
  RBC: 7.65 ± 0.08 10^6/μl
  Reticulocyte: 1.28 ± 0.07%
  WBC: 8.51 ± 0.14 103/μl
  Lymphocyte: 71.58
  Neutrophils: 25.9
  Eosinophil: 1.25%
[2]; HFD discontinued, day 60
  Clotting time: 112.04 ± 1.28 s
  Hb: 12.74 ± 0.27 g/dL
  Monocyte: 1.25%
  PCV: 41.01 ± 0.64%
  Platelet count: 1060 ± 20.3 10³/µL
  RBC: 7.57 ± 0.11 10^6/μl
  Reticulocyte: 1.26 ± 0.06%
  WBC: 8.42 ± 0.16 103/μl
  Lymphocyte: 71.70
  Neutrophils: 25.81
  Eosinophil: 1.24%
[3]; day 0
  Average Body Weight: 209.83 ± 26.39 gms
[3]; day 15
  Average Body Weight: 213.16 ± 27.47 gms
[3]; day 30
  Average Body Weight: 209.10 ± 20.10 gms
[3]; day 45
  Average Body Weight: 223.83 ± 28.41 gms
[3]; day 60
  Average Body Weight: 222.6 ± 17.46 gms
[3]; day 75
  Average Body Weight: 223.05 ± 8.08 gms
[3]; day 90
  Average Body Weight: 229.72 ± 6.13 gms
[3]; prophylactic study, after HFD treatment
  maintenance of body weight: not able to maintain the body weight
[4]
  Platelet count: 1040 ± 15.2 10³/µL
[5]; [6]
  Creatine phosphokinase: 1.33 ± 0.04 U/ml
  LDH: 278.50 ± 5.50 U/ml
  SGOT: 59.03 ± 1.49 U/ml
  SGPT: 55.63 ± 0.51 U/ml
[5]; prophylactic study, composition twice a day
  Inhibition in SGPT activity: 20%
